Measured values: patent US12421272B2, “Artificial nucleic acid, production method therefor, and use thereof” (SYSMEX CORPORATION, priority 2019, dated 2025)
Several values for one entry are separate records, joined by “and”; a condition that tells them apart may be missing. Identical values can stand only once.

What was measured:
Assay type in all cases: binding
[1] = test system: Target double-stranded DNA (DNA-1), 203-bp PCR product from pBR322 plasmid; assay: Strand invasion in the absence of SSB, gel shift assay; conditions: no SSB
Text: (§1) Target double-stranded DNA molecules are as follows. • (DNA-1) A 203-bp PCR product produced using pBR322 plasmid (commercially available product) as a template (SEQ ID NOs: 23 and 24). • (DNA-2) A 203-bp PCR product produced using artificial gene T1825G (commercially available product) based on pBR322 plasmid as a template. • (DNA-3) A 203-bp PCR product produced using artificial gene T1825C (commercially available product) based on pBR322 plasmid as a template. • (DNA-4) A 203-bp PCR product produced using artificial gene T1825A (commercially available product) based on pBR322 plasmid as a template.
The reaction was carried out using a thermal cycler (StepOnePlus, Applied Biosystems), in which each of the sample solutions was cooled from 94° C. to 54° C. at a cooling rate of 2° C./30 seconds or was kept at 37° C. for a certain period (24 hours, 48 hours).
The condition that the sample solution was cooled from 94° C. to 54° C. at a cooling rate of 2° C./30 seconds was a condition where a target double-stranded DNA (in this case, a 203-bp PCR product) can be converted to a single strand by the action of a heat energy and strand invasion can be caused by cooling slowly. Therefore, the condition simulated the use in a gene analysis technique.
The condition that temperature is kept at 37° C. for a certain period simulated an in vivo reaction, and therefore simulated the use in a nucleic acid medicine or genome edition.
The same procedures as in the step (3) above were carried out. In this experiment, only the staining using GelGreen (fluorescence staining) was carried out.
The reaction was carried out using a thermal cycler (StepOnePlus, Applied Biosystems), in which each of the sample solutions was cooled from 94° C. to 54° C. at a cooling rate of 2° C./30 seconds.

[2] = test system: Target double-stranded DNA (DNA-1), 203-bp PCR product from pBR322 plasmid; assay: Strand invasion in the presence of SSB, gel shift assay; conditions: SSB 6 μM, oligonucleotide 200 nM, DNA-1 30 nM, 37° C. for 120, 60 or 30 minutes
Text: as §1
Each of the sample solutions was reacted at 37° C. for 120 minutes, 60 minutes, or 30 minutes using a thermal cycler (StepOnePlus, Applied Biosystems).
After the completion of the reaction, two gels respectively having the sample solutions applied thereon prepared, and PAGE (Poly-Acrylamide Gel Electrophoresis) was carried out on the gels simultaneously under the following conditions. […]
After the completion of the electrophoresis, one of the gel was subjected to fluorescence staining (GelGreen Nucleic Acid Stain 10,000×, Biotium) for staining a nucleic acid, and the other gel was subjected to silver staining (EzStain Silver, ATTO corporation) for staining a nucleic acid and a protein simultaneously. […]

[3] = test system: single-stranded DNA (5′-d(AGCAAAAAACGC)-3′; SEQ ID NO: 6); assay: Melting temperature (Tm), capability of forming double strand with single-stranded DNA; conditions: sense strand 5′-d(AGCAAAAAACGC)-3′; 100 nM NaCl, 10 mM sodium phosphate buffer (pH 7.2), 4 μM of each strand; 0.5° C./min.
[4] = test system: single-stranded RNA (5′-r(AGCAAAAAACGC)-3′; SEQ ID NO: 7); conditions: pH 7.2

Substance	occurrence of strand invasion ([1]; oligonucleotide 100 nM (3.3 equivalents), DNA-1 30 nM, cooled from 94° C. to 54° C. or left at 37° C.)	occurrence of strand invasion (comparison of strand invasion functionality) ([1]; oligonucleotide 100 nM, DNA-1 30 nM, cooled from 94° C. to 54° C. or kept at 37° C. (24 hours, 48 hours))	occurrence of strand invasion into the sequence for wild-type ([1]; oligonucleotide 200 nM, DNA-1 15 nM, cooled from 94° C. to 54° C. or kept at 37° C. (24 hours, 48 hours))	occurrence of strand invasion [2]	Tm [3]	Tm [4]
PNA20: PNA 20-mer H-(Lys)ggcatgttcatcatcagtaa(Lys)-NH2 (GGCATGTTCATCATCAGTAA; all peptide nucleic acid (PNA); Lys residue at N- and C-terminus, C-terminal amide)	the occurrence of strand invasion was not confirmed	the occurrence of strand invasion was not observed	did not cause strand invasion	observed		
5′-d(GCGTTTTTTGCT)-3′: unmodified DNA antisense strand, SEQ ID NO: 5 (unmodified DNA)					52 °C	48 °C and 52 °C
